Inconclusive results and toxic doses are left out. Rule as the data show it: active = T/C of 150% or more; inactive = T/C below 125%.
Test system: L1210 leukemia ip in BDF1 mice, survival T/C
Experiment: NCI In Vivo Anticancer Drug Screen. Data for tumor model L1210 Leukemia (intraperitoneal) in B6D2F1 (BDF1) mice
Conditions: endpoint: mean survival time, higher = longer survival
Summary of the method: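 Transplantable tumor model; survival measured in treated vs vehicle control mice. Value = treated/control.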

[1] = dose: 100.0 mg/kg/injection, schedule: Q04DX003 (ip), vehicle: saline
[2] = dose: 50.0 mg/kg/injection, schedule: Q01DX009 (ip), vehicle: saline
[3] = dose: 100.0 mg/kg/injection, schedule: Q01DX009 (ip), vehicle: saline
[4] = dose: 100.0 mg/kg/injection, schedule: Q04DX002 (ip), vehicle: saline
[5] = dose: 200.0 mg/kg/injection, schedule: Q01DX009 (ip), vehicle: saline
[6] = dose: 200.0 mg/kg/injection, schedule: Q04DX002 (ip), vehicle: saline

Measured: T/C

CC(=O)N=c1ccc(C)cn1O
inactive: dose: 75.0 mg/kg/injection, schedule: Q01DX009 (ip), vehicle: Klucel (hydroxypropylcellulose) (HPC) 91 % of control | dose: 100.0 mg/kg/injection, schedule: Q04DX003 (ip), vehicle: Klucel (hydroxypropylcellulose) (HPC) 104 % of control | dose: 150.0 mg/kg/injection, schedule: Q01DX009 (ip), vehicle: Klucel (hydroxypropylcellulose) (HPC) 102 % of control | dose: 200.0 mg/kg/injection, schedule: Q04DX003 (ip), vehicle: Klucel (hydroxypropylcellulose) (HPC) 100 % of control | dose: 300.0 mg/kg/injection, schedule: Q01DX009 (ip), vehicle: Klucel (hydroxypropylcellulose) (HPC) 96 % of control | dose: 400.0 mg/kg/injection, schedule: Q04DX003 (ip), vehicle: Klucel (hydroxypropylcellulose) (HPC) 102 % of control

O=C1OCC/C1=C/c1cccc(O)c1
inactive: dose: 3.12 mg/kg/injection, schedule: Q04DX002 (ip), vehicle: Klucel (hydroxypropylcellulose) (HPC) 97 % of control | dose: 6.25 mg/kg/injection, schedule: Q04DX002 (ip), vehicle: Klucel (hydroxypropylcellulose) (HPC) 108 % of control | dose: 12.5 mg/kg/injection, schedule: Q04DX002 (ip), vehicle: Klucel (hydroxypropylcellulose) (HPC) 101 % of control

COC(=O)C(CSCSC)NC(=O)/C=C\c1ccccc1 (centres undefined)
inactive: dose: 100.0 mg/kg/injection, schedule: Q01DX009 (ip), vehicle: saline with Tween-80 88 % of control | dose: 100.0 mg/kg/injection, schedule: Q04DX003 (ip), vehicle: saline with Tween-80 97 % of control | dose: 200.0 mg/kg/injection, schedule: Q01DX009 (ip), vehicle: saline with Tween-80 88 % of control | dose: 200.0 mg/kg/injection, schedule: Q04DX003 (ip), vehicle: saline with Tween-80 97 % of control | dose: 400.0 mg/kg/injection, schedule: Q01DX009 (ip), vehicle: saline with Tween-80 96 % of control | dose: 400.0 mg/kg/injection, schedule: Q04DX003 (ip), vehicle: saline with Tween-80 94 % of control

CNC(=S)N/N=C/c1ccc(N(C)CCC#N)cc1
inactive: dose: 100.0 mg/kg/injection, schedule: Q01DX009 (ip), vehicle: Klucel (hydroxypropylcellulose) (HPC) 96 % of control | dose: 200.0 mg/kg/injection, schedule: Q01DX009 (ip), vehicle: Klucel (hydroxypropylcellulose) (HPC) 93 % of control

CCOC(=O)C1C2C=CC=CC(=O)C21 (centres undefined)
inactive: dose: 100.0 mg/kg/injection, schedule: Q01DX009 (ip), vehicle: other 102 % of control | dose: 100.0 mg/kg/injection, schedule: Q04DX003 (ip), vehicle: other 95 % of control | dose: 200.0 mg/kg/injection, schedule: Q01DX009 (ip), vehicle: other 95 % of control | dose: 200.0 mg/kg/injection, schedule: Q04DX003 (ip), vehicle: other 95 % of control | dose: 400.0 mg/kg/injection, schedule: Q04DX003 (ip), vehicle: other 105 % of control

CC(C)(C)OC(=O)CC1(C)CCC2C1C(=O)OC2(C)C (centres undefined)
inactive: dose: 25.0 mg/kg/injection, schedule: Q04DX003 (ip), vehicle: saline 98 % of control | dose: 50.0 mg/kg/injection, schedule: Q04DX003 (ip), vehicle: saline 98 % of control | dose: 100.0 mg/kg/injection, schedule: Q01DX001 (ip), vehicle: saline 91 % of control | [1] 102 % of control

Nc1cccc(CCc2nc(N)nc(N)c2-c2ccc(Cl)c(Cl)c2)c1
inactive: dose: 100.0 mg/kg/injection, schedule: Q01DX001 (ip), vehicle: saline with Tween-80 95 % of control | dose: 200.0 mg/kg/injection, schedule: Q01DX001 (ip), vehicle: saline with Tween-80 109 % of control | dose: 400.0 mg/kg/injection, schedule: Q01DX001 (ip), vehicle: saline with Tween-80 109 % of control

CC(C)CCCCCCCCCCCCC(=O)NCC(=O)NC1C(O)C(O)C(Nc2ncnc3nc[nH]c23)OC1C(O)CO (centres undefined)
inactive: dose: 0.3 mg/kg/injection, schedule: Q## X000 (ip), vehicle: carboxymethylcellulose (CMC) 100 % of control | dose: 0.4 mg/kg/injection, schedule: Q01DX Z (ip), vehicle: carboxymethylcellulose (CMC) 107 % of control | dose: 0.44 mg/kg/injection, schedule: Q## X000 (ip), vehicle: carboxymethylcellulose (CMC) 107 % of control | dose: 0.6 mg/kg/injection, schedule: Q01DX Z (ip), vehicle: carboxymethylcellulose (CMC) 104 % of control | dose: 0.66 mg/kg/injection, schedule: Q## X000 (ip), vehicle: carboxymethylcellulose (CMC) 98 % of control | dose: 0.9 mg/kg/injection, schedule: Q01DX Z (ip), vehicle: carboxymethylcellulose (CMC) 103 % of control | dose: 1.0 mg/kg/injection, schedule: Q01DX001 (ip), vehicle: saline 101 % of control | dose: 1.0 mg/kg/injection, schedule: Q## X000 (ip), vehicle: carboxymethylcellulose (CMC) 110 % of control | dose: 1.35 mg/kg/injection, schedule: Q01DX Z (ip), vehicle: carboxymethylcellulose (CMC) 107 % of control | dose: 2.0 mg/kg/injection, schedule: Q01DX001 (ip), vehicle: saline 98 % of control | dose: 4.0 mg/kg/injection, schedule: Q01DX001 (ip), vehicle: saline 98 % of control | dose: 8.0 mg/kg/injection, schedule: Q01DX001 (ip), vehicle: saline 101 % of control | dose: 12.0 mg/kg/injection, schedule: Q01DX001 (ip), vehicle: saline 105 % of control | dose: 18.0 mg/kg/injection, schedule: Q01DX001 (ip), vehicle: saline 112 % of control | dose: 27.0 mg/kg/injection, schedule: Q01DX001 (ip), vehicle: saline 96 % of control

Nc1ccc(S(=O)(=O)Nc2cnc3ccccc3n2)cc1
inactive: [2] 99 % of control | [3] 92 % of control | [4] 91 % of control | [5] 89 % of control | [6] 94 % of control

O=C1C2C(Cl)C(Cl)C(Cl)C(Cl)C2C(=O)N1NC1CCC([N+](=O)[O-])CC1[N+](=O)[O-] (centres undefined)
inactive: [3] 91 % of control | [4] 92 % of control | [5] 94 % of control | [6] 106 % of control | dose: 400.0 mg/kg/injection, schedule: Q01DX009 (ip), vehicle: saline 98 % of control | dose: 400.0 mg/kg/injection, schedule: Q04DX002 (ip), vehicle: saline 95 % of control

COc1ccc(-n2c(=O)c(N=Nc3ccc(Br)cc3)c(O)n(-c3ccc(Cl)cc3)c2=S)cc1
inactive: dose: 37.5 mg/kg/injection, schedule: Q01DX001 (ip), vehicle: Klucel (hydroxypropylcellulose) (HPC) 102 % of control | dose: 75.0 mg/kg/injection, schedule: Q01DX001 (ip), vehicle: Klucel (hydroxypropylcellulose) (HPC) 101 % of control | dose: 150.0 mg/kg/injection, schedule: Q01DX001 (ip), vehicle: Klucel (hydroxypropylcellulose) (HPC) 104 % of control

CCCCCCCCCCCCCCCCOc1ccc(Sc2ccc([N+](=O)[O-])cc2)cc1
inactive: dose: 400.0 mg/kg/injection, schedule: Q01DX001 (ip), vehicle: Klucel (hydroxypropylcellulose) (HPC) 87 % of control

C1=C(N2CCOCC2)CCC(N2CCOCC2)=C1
inactive: [2] 108 % of control | [3] 95 % of control | [1] 98 % of control | [5] 95 % of control | dose: 200.0 mg/kg/injection, schedule: Q04DX003 (ip), vehicle: saline 95 % of control

From PubChem BioAssay AID248 (DTP/NCI, 2004)
